Test results published in BindingDB's records for doi:10.1021/acs.biochem.5b00536 (University of Pennsylvania, 2015).

Columns and labels:
[1] = target: T1, Acetylpolyamine amidohydrolase (Mycoplana ramosa, UniProt Q48935); assay: APAH Fluorimetric Assay; settings: pH 8.2
T1 sequence (Q48935 whole entry): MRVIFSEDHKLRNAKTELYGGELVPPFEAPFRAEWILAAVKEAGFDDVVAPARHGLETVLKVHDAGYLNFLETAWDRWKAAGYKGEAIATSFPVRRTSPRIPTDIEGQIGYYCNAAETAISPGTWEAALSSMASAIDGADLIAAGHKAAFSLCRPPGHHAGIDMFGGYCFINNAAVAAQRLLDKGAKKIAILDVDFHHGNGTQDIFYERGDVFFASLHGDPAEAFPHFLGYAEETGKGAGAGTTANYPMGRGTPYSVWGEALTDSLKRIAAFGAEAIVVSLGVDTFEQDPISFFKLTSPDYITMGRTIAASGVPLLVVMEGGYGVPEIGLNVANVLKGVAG
Protocol: (§1) Activity assays were conducted at 25 °C and contained 250 nM APAH (∼50% Zn2+ occupancy), 150 μM substrate, and 0−250 μM inhibitor in assay buffer [25 mM Tris (pH 8.2), 137 mM NaCl, 2.7 mM KCl, and 1 mM MgCl2] in a final volume of 50 μL. […] After 30 min, reactions were quenched by adding 100 μM M344 (Sigma-Aldrich) and the appropriate Fluor-de-Lys developer (BML-KI105, Enzo Life Sciences, 50 μL). Fluorescence was measured after 45 min using a Fluoroskan II plate reader (excitation at 355 nm, emission at 460 nm).

Histone deacetylase 8 = target: T2, Histone deacetylase 8 (Homo sapiens, UniProt Q9BY41); assay: HDAC8 Fluorimetric Assay; settings: pH 8.2
T2 sequence (Q9BY41 whole entry): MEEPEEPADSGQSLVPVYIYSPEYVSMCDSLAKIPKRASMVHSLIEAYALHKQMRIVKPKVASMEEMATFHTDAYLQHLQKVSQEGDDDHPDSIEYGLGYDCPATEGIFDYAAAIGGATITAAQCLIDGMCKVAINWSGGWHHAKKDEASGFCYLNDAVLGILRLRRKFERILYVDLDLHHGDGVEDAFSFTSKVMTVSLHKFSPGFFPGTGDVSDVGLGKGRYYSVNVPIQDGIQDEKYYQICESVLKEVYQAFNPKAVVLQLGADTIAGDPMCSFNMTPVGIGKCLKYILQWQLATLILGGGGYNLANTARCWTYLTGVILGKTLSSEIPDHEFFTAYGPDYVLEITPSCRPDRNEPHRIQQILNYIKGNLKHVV
Protocol: as §1, with “500” for “250”, “HDAC8 enzyme,” for “APAH (∼50% Zn2+ occupancy),”, “Ac-Arg-His-Lys(Ac)-Lys(Ac)-aminomethylcoumarin substrate (BML-KI178, Enzo Life Sciences),” for “substrate,”, “0−10 mM” for “0−250 μM”, “MgCl2; 250 μM tris(2-carboxyethyl)phosphine was added for the assay of thiol compound 2]” for “MgCl2]”, “(BMLKI176,” for “(BML-KI105,”

SMILES | IC50 [1] [nM] | IC50 (Histone deacetylase 8) [nM]
NCCCCC(=O)NO [5-Amino-N-hydroxypentanamide (4)] | 170 | 120000
NCCCNCCCCCC(=O)NO [(3-azaniumylpropyl)[5-(hydroxycarbamoyl)pentyl]azanium (3)] | – | 14000
NCCCNCCCCCC(=O)C(F)(F)F [(3-azaniumylpropyl)(7,7,7-trifluoro-6-oxoheptyl)azanium (1)] | – | 260
NCCCNCCCCCS [(3-azaniumylpropyl)(5-sulfanylpentyl)azanium (2)] | – | 12000
NCCCCCC(=O)NO | 130 | 19000
NCCCCCCC(=O)NO | 68 | 5300
NCCCCCCCC(=O)NO | 150 | 2200
